According to publication PMC9706920, “Aryloxypropanolamine targets amyloid aggregates and reverses Alzheimer-like phenotypes in Alzheimer mouse models” (Alzheimer's Research & Therapy, 2022):
pIC50: −log10 of the molar value.

Tests used:
Plasma stability, human = format: in vitro ADME; conditions: 10 μM, 37°C, vs 0 min
Procedure: To assess the plasma stability of YIAD002, YIAD002 stock was dissolved at a concentration of […] in DMSO. 5 μL of YIAD002 stock was added to 195 μL of human plasma or 195 μL of rat plasma and incubated at 37°C for the following time points: 0, 30, and 120 min. At the end of incubation, acetonitrile with chlorpropamide was added to stop reactions. The solutions were centrifuged at 14,000 rpm at 4°C for 5 min and the supernatant was analyzed with LC-MS/MS. High performance liquid chromatography was carried out on a Kinetex C18 column (2.1 × 100 mm, 2.6 μm particle size, Phenomenex, USA). The composition of the mobile phase was 0.1% formic acid in water (A) and 0.1% formic acid in acetonitrile (B).

APP/PS1 mice [1] = test: Morris water maze in APP/PS1 mice; format: in vivo, mouse; conditions: 30 mg/kg/day oral, 10 weeks, vs vehicle
Procedure: (§1) To test whether YIAD002 could reduce amyloid plaques in another AD mouse model, APP/PS1 transgenic mice (n = 24) and wildtype mice (n = 5) were assessed at the age of 7.5 months. YIAD002 was dissolved in PBS (0.5% methylcellulose) at two different concentrations (10 and 30 mg/kg/day) and administrated daily to APP/PS1 mice (n = 8 for each group) via oral gavage for 8 weeks. As a control, vehicle solutions were orally administrated to littermate APP/PS1 mice (n = 8) and wildtype mice (n = 5).
The Morris water maze was used to evaluate whether YIAD002 could improve cognitive function in APP/PS1 mice during the tenth week of administration. A circular stainless pool with a radius of 90 cm and height of 50 cm with water kept at 22±1°C. Nontoxic opaque white paint was used to hide a platform with a radius of 9 cm hidden 1 cm beneath the surface. The training phase consisted of 5 days, in which the mice were given 60 s to find the platform. On circumstances where a mouse could not reach the platform within 60 s, it was placed on the platform where it had to remain for 10 s. The probe test took place on the sixth day, in which the platform was removed and the mice swam freely for 60 s. Swimming trajectories were recorded and analyzed using SMART VIDEO TRACKING Software (Panlab, USA). To assess cognitive improvement in YIAD002-treated mice groups, latency to target (seconds) and the number of target crossings were compared to vehicle-treated APP/PS1 mice. After the probe trial, the mice were sacrificed and the collected brains were fixed in formalin.

CYP 2C19 = target: T1, CYP 2C19 (Homo sapiens, UniProt P33261); test: CYP450 inhibition assay, 2C19; format: in vitro ADME; conditions: YIAD002 10 μM, human liver microsomes; weak or no inhibition; read-out: CYP 2C19 inhibition, IC50 (inhibition criteria)
T1 construct: contained human liver microsomes (0.25 mg/ml); from tissue; host or cells: human liver microsomes
T1 sequence (P33261 whole entry): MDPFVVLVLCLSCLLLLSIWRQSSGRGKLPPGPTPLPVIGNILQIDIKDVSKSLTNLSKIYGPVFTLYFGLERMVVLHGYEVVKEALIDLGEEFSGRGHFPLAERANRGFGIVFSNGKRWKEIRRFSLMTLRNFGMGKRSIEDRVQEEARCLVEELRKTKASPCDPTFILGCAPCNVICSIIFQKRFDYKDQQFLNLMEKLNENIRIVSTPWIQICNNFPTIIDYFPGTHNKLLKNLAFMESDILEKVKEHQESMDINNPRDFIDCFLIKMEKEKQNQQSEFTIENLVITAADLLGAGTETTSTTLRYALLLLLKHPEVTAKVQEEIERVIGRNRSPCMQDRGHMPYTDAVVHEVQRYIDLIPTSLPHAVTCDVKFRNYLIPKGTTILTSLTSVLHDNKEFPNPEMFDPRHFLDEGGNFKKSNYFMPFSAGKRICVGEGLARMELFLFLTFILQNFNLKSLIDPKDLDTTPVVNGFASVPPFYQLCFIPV
Procedure: (§2) Incubation mixtures for Cytochrome P450s (CYPs) inhibition assay contained human liver microsomes (0.25 mg/ml), 0.1 M phosphate buffer (pH 7.4), 10 μM of YIAD002, and an enzyme substrate cocktail (phenacetin 50 μM, diclofenac 10 μM, S-mephenytoin 100 μM, dextromethorphan 5 μM, and midazolam 2.5 μM). The mixture was pre-incubated at 37°C for 5 min and 1 mM NAPDH was added to initiate reactions. After 15 min of incubation, acetonitrile with terfenadine was added to stop reactions and microsomal solutions were centrifuged at 14,000 rpm at 4°C for 5 min. For LC-MS/MS analysis, supernatants were injected on a Kinetex C18 column (2.1 × 100 mm, 2.6 μm particle size, Phenomenex, USA). The composition of the mobile phase was 0.1% formic acid in water (A) and 0.1% formic acid in acetonitrile (B).

APP/PS1 mice [2] = test: 6E10 immunohistochemical staining of amyloid plaques in APP/PS1 mice; format: in vivo, mouse; conditions: YIAD002-treated APP/PS1 mice vs vehicle
Procedure: as §1
Formalin-fixed APP/PS1 mice brains were infiltrated with paraffin using a tissue processor (LEICA ASP300S, Germany). Blocks of tissues were produced with a tissue embedding center and sectioned into thin slices (4 μm), which were mounted onto glass slides. To prepare for 6E10 staining, slides were deparaffinized, rehydrated, and blocked with 0.03% H2O2 to remove endogenous peroxidase. For antigen retrieval, slides were boiled in Tris/EDTA solution (pH 9.0) using a pressure cooker. Unspecific binding was blocked through incubation in 4% BSA at RT for 30 min. Slides were immunolabeled with anti-6E10 antibody (1:2000, Novus Biologicals NBP2-62566) at RT for 1 h and HRP-labeled secondary antibody (Dako K4003) for 30 min and subsequently stained with DAB (3,3′-Diaminobenzidine) and counterstained with Mayer’s hematoxylin. Stained slides were scanned using ZEISS Axio scan.Z1 microscope. Amyloid plaques were quantified using Image-J software (NIH).

CYP 1A2 = target: T2, CYP 1A2 (Homo sapiens, UniProt P05177); test: CYP450 inhibition assay, 1A2; format: in vitro ADME; conditions: YIAD002 10 μM, human liver microsomes; weak or no inhibition; read-out: CYP 1A2 inhibition, IC50 (inhibition criteria)
T2 construct: […]; from tissue; host or cells: human liver microsomes
T2 sequence (P05177 1-516): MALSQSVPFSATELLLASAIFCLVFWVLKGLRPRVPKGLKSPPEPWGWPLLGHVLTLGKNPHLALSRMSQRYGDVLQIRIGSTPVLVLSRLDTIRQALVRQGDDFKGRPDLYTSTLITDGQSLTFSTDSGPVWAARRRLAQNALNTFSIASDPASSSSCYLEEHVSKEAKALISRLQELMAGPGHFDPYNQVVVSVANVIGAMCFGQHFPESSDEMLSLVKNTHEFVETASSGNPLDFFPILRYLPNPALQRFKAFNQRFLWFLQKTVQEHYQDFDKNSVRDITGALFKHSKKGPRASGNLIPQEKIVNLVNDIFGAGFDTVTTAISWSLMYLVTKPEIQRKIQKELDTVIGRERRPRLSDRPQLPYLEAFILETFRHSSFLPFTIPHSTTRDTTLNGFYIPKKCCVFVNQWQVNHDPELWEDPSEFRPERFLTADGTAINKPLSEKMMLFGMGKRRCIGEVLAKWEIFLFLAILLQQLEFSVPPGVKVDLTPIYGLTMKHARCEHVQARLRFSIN
Procedure: as §2

CCC(C)(C)c1ccc(OCC(O)CN2CCCC2)c(C(C)(C)CC)c1.Cl (stereo not drawn) [YIAD002, 1-(3-(2,4-Di-tert-pentylphenoxy)-2-hydroxypropyl)pyrrolidin-1-ium chloride]
Compound remaining in human plasma (Plasma stability, human; 30 min): 96.3% | Compound remaining in human plasma (Plasma stability, human; 120 min): 92.6% | Escape latency after 5 days of training (APP/PS1 mice [1]; 7.5-month-old APP/PS1 mice): significantly shortened | Latency to target, probe trial (APP/PS1 mice [1]; APP/PS1 mice): significantly shorter | Target crossings, probe trial (APP/PS1 mice [1]; APP/PS1 mice): increased target crossings | pIC50 (CYP 2C19): < 5.00 | Number of plaques, cortex (APP/PS1 mice [2]): significantly reduced | Plaque size, hippocampus (APP/PS1 mice [2]): significantly reduced | Size of plaques, cortex (APP/PS1 mice [2]): significantly reduced | Area of 6E10-stained plaques, whole brain (APP/PS1 mice [2]; dose not given): reduced | Number of 6E10-stained plaques, whole brain (APP/PS1 mice [2]; dose not given): reduced | pIC50 (CYP 1A2): < 5.00
